According to patent US12421211B2, “Heterocyclic compounds” (Hoffmann-La Roche Inc., priority 2021, dated 2025):
In brackets after ≈: the same amount, converted by molar mass. Where a name gives a salt, the structure may show the parent alone. Read-outs that look alike come from different tables or passages of the source.

Legend:
[1] = test system: Acinetobacter baumannii ATCC17961; assay: Antimicrobial susceptibility testing: 90% growth inhibitory concentration (IC90) determination; format: cell-based; details: Acinetobacter baumannii, ATCC17961, 16 h, read-out: ATCC 17961 IC90
Method in brief: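 A. baumannii ATCC17961 at ~5×10^5 CFU/ml in Iso-Sensitest broth exposed to 10-point twofold dilutions (e.g. 50–0.097 μM final), 35±2° C. OD600 read every 20 minutes over 16h; IC50 and IC90 derived from inhibition during logarithmic growth.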

[2] = test system: Acinetobacter baumannii ATCC17978; assay: Minimal Inhibitory Concentration (MIC) assay; format: cell-based; details: read-out: MIC AB. ATCC17978
Procedure: Minimal Inhibitory Concentration Protocol (MIC) Assay:
Table 2 provides the in vitro potency of the compounds of present invention obtained against the strain Acinetobacter baumannii ATCC17978, which was assessed by an MIC (Minimal Inhibitory Concentration) assay as follows.
Test compounds were prepared from 10 mM DMSO stock solutions. The top dose was diluted from 10 mM to 2.5 mM by DMSO, followed by serial 2-fold 11 points dilutions in DMSO in a master plate (Greiner, Cat No: 651201). 2 μL compounds were transferred from the master plate into a new 96-well assay plate (Costar, 3599).
The growth medium […] Mueller Hinton Broth (CAMHIB) was prepared by adding 22 g powder (BD, 212322) in 1 L purified water, autoclaved, and supplemented with sterilized CaCl2 (20 mg per liter) and MgCl2 (10 mg per liter).
Vials of each of the test microorganisms were maintained frozen in the vapor phase of a liquid nitrogen freezer. Took out the bacterial strain ATCC 17978 from liquid nitrogen freezer, thawed it at room temperature, and diluted the bacterial in the CAMHB medium to achieve a final inoculum of 2×10^5 CFU/mL. 98 μL of the adjusted bacteria suspension was dispensed to the assay plate and pipetted 5 times.
Then the assay plates were incubated for 20 hours at 35±2° C. in ambient air with humidity. Following incubation, MIC […] value, the lowest concentration of drug that inhibits visible growth of the microorganism, was recorded by visual judgment of bacterial growth through magnification mirror of MIC reader, and the assay plates were photographed with Qcount system as image raw data. Meanwhile, the D600 of assay plates was recorded with SpectraMax Plus384 as GD raw data.

[3] = Acinetobacter baumannii, ATCC17978, 20 h
[4] = 90% growth inhibitory concentration, Acinetobacter baumannii ATCC17961, Iso-Sensitest broth, OD 600 nm over 16 h
[5] = Acinetobacter baumannii ATCC17978, CAMHB medium, 20 hours at 35±2° C., visual reading

SMILES | IC90 [1] [nM] | MIC [2, 3] [µM] | IC90 [1, 4] [nM] | MIC [2, 5] [µM]
COCCn1cc(-c2ccc(-c3cnc(C(=O)Nc4ccc(C(=O)N5CCN(C(=O)C6CCNCC6O)CC5)c(C)c4)n3C)c(F)c2F)c(C)n1 (centres unmarked) [Example D22, 5-[2,3-difluoro-4-[1-(2-methoxyethyl)-3-methyl-pyrazol-4-yl]phenyl]-N-[4-[4-(3-hydroxypiperidine-4-carbonyl)piperazine-1-carbonyl]-3-methyl-phenyl]-1-methyl-imidazole-2-carboxamide; formic acid] | 199 | 1.1 (≈ 0.775 µg/mL) | – | –
COCCn1ncc(-c2ccc(-c3cnc(C(=O)Nc4ccc(C(=O)N5CCN(C(=O)C6CCCN6)CC5)c(Cl)c4)n3C)c(F)c2F)c1C (centres unmarked) [Example D29, N-[3-chloro-4-[4-(pyrrolidine-2-carbonyl)piperazine-1-carbonyl]phenyl]-5-[2,3-difluoro-4-[1-(2-methoxyethyl)-5-methyl-pyrazol-4-yl]phenyl]-1-methyl-imidazole-2-carboxamide; 2,2,2-trifluoroacetic acid] | – | – | < 20 | 0.45 (≈ 0.313 µg/mL)
COCCn1cc(-c2ccc(-c3cnc(C(=O)Nc4ccc(C(=O)N5CCN(C(=O)C6CC[N+](C)(C)CC6)CC5)c(Cl)c4)n3C)c(F)c2F)c(CF)n1 [Example F29, N-[3-chloro-4-[4-(1,1-dimethylpiperidin-1-ium-4-carbonyl)piperazine-1-carbonyl]phenyl]-5-[2,3-difluoro-4-[3-(fluoromethyl)-1-(2-methoxyethyl)pyrazol-4-yl]phenyl]-1-methyl-imidazole-2-carboxamide; chloride] | – | – | 280 | 4.73
COCCn1cc(-c2ccc(-c3cnc(C(=O)Nc4ccc(C(=O)N5CCN(C(=O)C6CC[N+](C)(C)CC6)CC5)c(Cl)c4)n3C)c(F)c2F)c(Cl)n1 [Example F30, N-[3-chloro-4-[4-(1,1-dimethylpiperidin-1-ium-4-carbonyl)piperazine-1-carbonyl]phenyl]-5-[4-[3-chloro-1-(2-methoxyethyl)pyrazol-4-yl]-2,3-difluoro-phenyl]-1-methyl-imidazole-2-carboxamide; formate] | – | – | 97 | 1.19
COCCn1cc(-c2ccc(-c3cnc(C(=O)Nc4ccc(C(=O)N5CCN(C(=O)C6CC[N+](C)(C)CC6)CC5)c(Cl)c4)n3C)c(F)c2F)c(-c2ccccc2)n1 [Example F49, N-[3-chloro-4-[4-(1,1-dimethylpiperidin-1-ium-4-carbonyl)piperazine-1-carbonyl]phenyl]-5-[2,3-difluoro-4-[1-(2-methoxyethyl)-3-phenyl-pyrazol-4-yl]phenyl]-1-methyl-imidazole-2-carboxamide; formate] | – | – | 1520 | 2.5
COCCn1ncc(-c2ccc(-c3c(Cl)nc(C(=O)Nc4ccc(C(=O)N5CCN(C(=O)C6CC[N+](C)(C)CC6)CC5)c(Cl)c4)n3C)c(F)c2F)c1C [Example F53, 4-chloro-N-[3-chloro-4-[4-(1,1-dimethylpiperidin-1-ium-4-carbonyl)piperazine-1-carbonyl]phenyl]-5-[2,3-difluoro-4-[1-(2-methoxyethyl)-5-methyl-pyrazol-4-yl]phenyl]-1-methyl-imidazole-2-carboxamide; formate] | – | – | 110 | 0.6
Cc1nn(CC(=O)NC2CCC[N+](C)(C)C2)cc1-c1ccc(-c2cnc(C(=O)Nc3ccc(C(=O)N4CCN(C(=O)C5CC[N+](C)(C)CC5)CC4)c(Cl)c3)n2C)c(F)c1F (centres unmarked) [Example G24, N-[3-chloro-4-[4-(1,1-dimethylpiperidin-1-ium-4-carbonyl)piperazine-1-carbonyl]phenyl]-5-[4-[1-[2-[0,1-dimethylpiperidin-1-ium-3-yl)amino]-2-oxo-ethyl]-3-methyl-pyrazol-4-yl]-2,3-difluoro-phenyl]-1-methyl-imidazole-2-carboxamide; diformate] | 508 | 3.85 | – | –
